From ChEMBL document CHEMBL1201862, “PubChem BioAssay data set” (2004) come the findings set out here.

Among the test systems are U-251; KM-20L2; DLD-1; TK-10; LXFL 529; UACC-62; SR; RPMI-8226; SNB-75; SN12C; HT-29; XF498; SK-OV-3; CCRF-CEM; DMS-114; DMS-273; HOP-18; NCI/ADR-RES; MCF7; MDA-N.
Holding throughout (assay): inhibition of tumour cell growth, NCI panel, 48 h

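48-hour exposure; five concentrations; linearly interpolated endpoints. GI50 = concentration required for 50% inhibition of growth.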 Calls of active or inactive are those of the source. Rule as the data show it: active = GI50 up to about 1.1 µM and inactive = higher.

On to `O=C(Nc1ccc(F)cc1)C(=O)C(C(=O)c1ccccc1F)C1OC(=O)c2ccccc21` (stereo not given), for which the GI50 in the assay on U-251 is 24 µM (inactive); in the assay with KM-20L2, 86.3 µM (inactive); with DLD-1, 76.4 µM (inactive); in the assay with TK-10, > 100 µM (inactive); with LXFL 529 it was 34.8 µM (inactive); in the assay on UACC-62 it was 39.9 µM (inactive). For the same compound, the GI50 was 19.8 µM (inactive) in the assay with SR; 23.4 µM (inactive) in the assay on RPMI-8226; 43.7 µM (inactive) with SNB-75; 51.2 µM (inactive) with SN12C; 52.6 µM (inactive) in the assay with HT-29; 50.8 µM (inactive) in the assay on XF498. Further, the GI50 with SK-OV-3 is 66.5 µM (inactive); with CCRF-CEM, 17.6 µM (inactive); in the assay with DMS-114, 45.5 µM (inactive); with DMS-273, 43.3 µM (inactive).

For the compound `CCOCc1cc(=O)c2c(O)cc3c(c2o1)CCC(C)(C)O3`, the GI50 in the assay on U-251, with KM-20L2, in the assay with DLD-1, in the assay on TK-10, in the assay with LXFL 529 and in the assay on UACC-62 was > 100 µM (inactive) throughout. The GI50 with HOP-18, in the assay on RPMI-8226, in the assay on SNB-75, in the assay with SN12C, with HT-29 and in the assay on SK-OV-3 was > 100 µM (inactive) in each case. Also, the GI50 in the assay on CCRF-CEM, with DMS-114 and in the assay with DMS-273 was > 100 µM (inactive) throughout.

Turning to `COc1cc(S(=O)(=O)Nc2ccc(-c3csc(N4C(=O)C(C)SC4c4cccc(Oc5ccccc5)c4)n3)cc2)ccc1Cl` (stereo not given), the GI50 in the assay on NCI/ADR-RES was > 100 µM (inactive); in the assay with UACC-62, 28.4 µM (inactive); in the assay on SR, 26.3 µM (inactive); in the assay with RPMI-8226, 42.1 µM (inactive); in the assay with SNB-75 it was 52.1 µM (inactive); with MCF7, 24.1 µM (inactive). For the same compound, the GI50 was 70.1 µM (inactive) in the assay on SN12C; 35.4 µM (inactive) in the assay on HT-29; 27.7 µM (inactive) with MDA-N; 52.6 µM (inactive) with SK-OV-3; 64.7 µM (inactive) in the assay on CCRF-CEM.

As for `O=[S@@]1Nc2ccc(Br)cc2S1`, the GI50 with U-251 is 5.18 µM (inactive); in the assay with KM-20L2 it was 0.294 µM (active); with DLD-1 it was 6.08 µM (inactive); in the assay on TK-10, 2.79 µM (inactive); in the assay on LXFL 529, 0.282 µM (active); with UACC-62, 1.07 µM (active). Also, the GI50 with SR is 7.14 µM (inactive); in the assay with RPMI-8226, > 100 µM (inactive); in the assay on SNB-75, > 100 µM (inactive); with SN12C it was 37.7 µM (inactive); in the assay with HT-29, 2.13 µM (inactive); in the assay on XF498, > 100 µM (inactive). Moreover, the values for the GI50 in the assay on SK-OV-3, in the assay on CCRF-CEM and in the assay on DMS-273 were 22.5 µM (inactive), 1.64 µM (inactive) and 1.73 µM (inactive), respectively.

As for `Clc1ccc(N/N=C(\c2ccccc2)c2ccccn2)nc1`, the GI50 in the assay with U-251 is 0.031 µM (active); in the assay on NCI/ADR-RES, < 0.0165 µM (active); in the assay with UACC-62, 0.214 µM (active); in the assay with SR, 0.114 µM (active); in the assay with RPMI-8226, 0.147 µM (active); with SNB-75, 0.316 µM (active). Besides, the GI50 in the assay with MCF7 is < 0.01 µM (active); in the assay with SN12C it was < 0.01 µM (active); in the assay on HT-29 it was < 0.01 µM (active); in the assay with MDA-N, 2.48 µM (inactive); in the assay with SK-OV-3, 0.282 µM (active); in the assay on CCRF-CEM, < 0.01 µM (active).

In the case of `Cc1cc(C)c(C2=NO[C@@H]3[C@H]2C(=O)C=C2N(Cc4ccccc4)CCO[C@@]23O)c(C)c1`, the GI50 with U-251, in the assay on KM-20L2, in the assay on DLD-1, with NCI/ADR-RES, in the assay on UACC-62 and with HOP-18 was > 100 µM (inactive) in each case. For the same compound, the GI50 is > 100 µM (inactive) in the assay on RPMI-8226; > 94.2 µM (inactive) in the assay on SNB-75; > 100 µM (inactive) in the assay on MCF7; > 100 µM (inactive) in the assay on SN12C; > 100 µM (inactive) in the assay with HT-29; > 100 µM (inactive) in the assay with XF498. Besides, the GI50 with SK-OV-3, in the assay with CCRF-CEM and in the assay on DMS-273 was > 100 µM (inactive) in each case.

In the case of `CCOC(=O)c1nc2ccc(OC)cc2c2c1Cc1ccccc1-2`, the GI50 in the assay on U-251 is > 100 µM (inactive); in the assay with KM-20L2 it was > 100 µM (inactive); in the assay with DLD-1, > 100 µM (inactive); in the assay with TK-10, > 100 µM (inactive); in the assay on LXFL 529, > 100 µM (inactive); in the assay with UACC-62, 90.2 µM (inactive). Moreover, the GI50 is > 100 µM (inactive) in the assay with SR; > 100 µM (inactive) with RPMI-8226; 81.5 µM (inactive) in the assay on SNB-75; > 100 µM (inactive) in the assay on SN12C; > 100 µM (inactive) in the assay on HT-29; 23.9 µM (inactive) with DMS-114. For the same compound, the GI50 with DMS-273 was > 100 µM (inactive).

For `COC(=O)/C=C\n1nc(Br)c(=O)[nH]c1=O`, the GI50 with U-251, in the assay with NCI/ADR-RES, in the assay on TK-10, in the assay on SR, in the assay with RPMI-8226 and with SNB-75 was > 100 µM (inactive) each time. For the same compound, the GI50 in the assay with MCF7, in the assay with SN12C, in the assay with HT-29, in the assay on MDA-N and in the assay with CCRF-CEM was > 100 µM (inactive) throughout.

With `O=S(O)c1cc(Cl)cc(Cl)c1O`, the GI50 with U-251 is > 100 µM (inactive); in the assay on DLD-1, > 100 µM (inactive); with TK-10, > 100 µM (inactive); in the assay on LXFL 529, > 100 µM (inactive); in the assay with UACC-62, > 100 µM (inactive); in the assay with SNB-75, 75.9 µM (inactive). The GI50 was > 100 µM (inactive) with SN12C; > 100 µM (inactive) with HT-29; > 100 µM (inactive) in the assay with XF498; > 100 µM (inactive) in the assay on SK-OV-3; > 100 µM (inactive) in the assay with CCRF-CEM; 80.9 µM (inactive) in the assay with DMS-114.

Take `CN(C)CCNC(=O)c1ccc(Cl)c2ccc(-c3ccccc3)nc12`: the GI50 is 2.93 µM (inactive) with U-251; 2.62 µM (inactive) with KM-20L2; 2.92 µM (inactive) with DLD-1; 2.42 µM (inactive) in the assay on NCI/ADR-RES; 2.69 µM (inactive) in the assay on UACC-62; 3.26 µM (inactive) in the assay with HOP-18. Also, the GI50 in the assay on RPMI-8226 was 2.51 µM (inactive); with SNB-75, 3.57 µM (inactive); in the assay with MCF7, 3.31 µM (inactive); with SN12C, 3.85 µM (inactive); with HT-29, 2.77 µM (inactive); with XF498 it was 3.16 µM (inactive). The GI50 with SK-OV-3 was 4.7 µM (inactive); in the assay with CCRF-CEM it was 2.16 µM (inactive); in the assay with DMS-273, 3 µM (inactive).

As for `O=c1[nH]cnc2sc(=S)c3c(c12)CCC3`, the GI50 in the assay on U-251 was > 100 µM (inactive); with NCI/ADR-RES it was 36.9 µM (inactive); with TK-10, 25.2 µM (inactive); in the assay on UACC-62 it was 40.9 µM (inactive); in the assay on SR, 12.1 µM (inactive); with RPMI-8226, 18 µM (inactive). The GI50 was > 100 µM (inactive) in the assay on SNB-75; > 100 µM (inactive) in the assay with MCF7; > 100 µM (inactive) in the assay on SN12C; 35.2 µM (inactive) with HT-29; > 100 µM (inactive) with SK-OV-3; 21 µM (inactive) with CCRF-CEM.

As for `O=S(O)c1cc(Cl)cc(Cl)c1OCc1ccccc1`, the GI50 in the assay with U-251, in the assay with DLD-1, with TK-10, in the assay on LXFL 529, in the assay on UACC-62 and in the assay on SR was > 100 µM (inactive) throughout. The GI50 in the assay on SNB-75, in the assay on SN12C, in the assay with HT-29, in the assay with XF498, in the assay with SK-OV-3 and with CCRF-CEM was > 100 µM (inactive) each time. Besides, the GI50 in the assay with DMS-114 was > 100 µM (inactive).

As to `COCC1N=C(c2cc(OC)c(OC)c(OC)c2-c2cc3c(cc2[C@@H](C)O)OCO3)O[C@H]1c1ccccc1` (stereo not given in full), the GI50 was 53.2 µM (inactive) in the assay on U-251; 98.2 µM (inactive) in the assay on KM-20L2; > 89.7 µM (inactive) with DLD-1; 40.2 µM (inactive) with NCI/ADR-RES; 33.6 µM (inactive) with UACC-62; > 86.5 µM (inactive) with HOP-18. The GI50 is 97.5 µM (inactive) with RPMI-8226; 25.9 µM (inactive) with SNB-75; > 61.1 µM (inactive) in the assay on MCF7; 52.1 µM (inactive) with SN12C; 75.9 µM (inactive) in the assay with HT-29; 97.5 µM (inactive) in the assay on SK-OV-3. For the same compound, the GI50 in the assay with CCRF-CEM was > 100 µM (inactive); with DMS-273, > 71.9 µM (inactive).

Consider `OCC1C2C=CC(O2)[C@H]1CO` (stereo not given in full), for which the GI50 in the assay on U-251, in the assay on KM-20L2, with DLD-1, in the assay with TK-10, in the assay on LXFL 529 and in the assay on UACC-62 was > 100 µM (inactive) in each case. Further, the GI50 with HOP-18 was > 100 µM (inactive); in the assay on SR, > 100 µM (inactive); in the assay with RPMI-8226, > 100 µM (inactive); in the assay with SNB-75 it was > 100 µM (inactive); in the assay on SN12C, > 100 µM (inactive); with HT-29, 79.6 µM (inactive). Moreover, the GI50 was > 100 µM (inactive) in the assay with SK-OV-3, 78.7 µM (inactive) in the assay with CCRF-CEM, 92.7 µM (inactive) in the assay with DMS-114 and > 100 µM (inactive) in the assay with DMS-273.
